Source: patent publication US4211866A, “Acyl derivatives of 2-[3-(2-chloroethyl)-3-nitrosoureido]-2-deoxy-D-glucopyranose” (Nippon Shinyaku Co., Ltd., priority 1977, dated 1980)

Columns and labels:
[1] = Acute toxicities in mice; assay type: in vivo; settings: mice (male, ddy), intraperitoneal single dose, 7 days survival
Source text: Acute toxicities in mice (male, ddy).
*Intraperitoneal administration of a single dose, 7 days survival.

[2] = test system: mouse lymphatic leukemia P-388; assay: Antileukemic activity against Leukemia P-388 in mice; assay type: in vivo, mouse (SLC-BDF1, male); settings: intraperitoneal, every 24 hours, 9 doses; for Median survival time: control 10.2 days; for Increase of Life Span: vs control
Description: The antitumor activity and acute toxicity of the acyl derivatives of 2-[3-(2-chloroethyl)-3-nitrosoureido]-2-deoxy-D-glucopyranose according to this invention can be conveniently observed in recognized animal models. 1,000,000 cells of mouse lymphatic leukemia P-388 were intraperitoneally transplanted into each mouse (SLC-BDF1, male, 18 g.congruent.1 g, 5 weeks old). After 24 hours and thereafter at intervals of 24 hours, a predetermined amount of an acyl derivative of 2-[3-(2-chloroethyl)-3-nitro-soureido]-2-deoxy-D-glucopyramose was intraperitoneally administered for a total of 9 doses. The mice were reared under observation.

| Compound | LD50 [1] | Median survival time ([2]; 0.125 mg/Kg/dose) | Increase of Life Span ([2]; 0.125 mg/Kg/dose) | Median survival time ([2]; 0.25 mg/Kg/dose) | Increase of Life Span ([2]; 0.25 mg/Kg/dose) | Median survival time ([2]; 0.5 mg/Kg/dose) | Increase of Life Span ([2]; 0.5 mg/Kg/dose) | Median survival time ([2]; 1.0 mg/Kg/dose) | Increase of Life Span ([2]; 1.0 mg/Kg/dose) | LD50 at 168 h ([1]; mouse, in vivo, ip) |
| --- | --- | --- | --- | --- | --- | --- | --- | --- | --- | --- |
| 2-[3-(2-chloroethyl-3-nitrosoureidol]-2-deoxy-D-glucopyranose tripalmitate | > 800 mg/kg | – | – | – | – | – | – | – | – | – |
| 2-[3-(2-chloroethyl)-3-nitrosoureido]-2-deoxy-D-glucopyranose dipalmitate | > 800 mg/kg | 16.5 days | 61.8% | 17.8 days | 74.5% | 19.3 days | 89.2% | 21.0 days | 105.9% | – |
| 2-[3-(2-chloroethyl)-3-nitrosoureido]-2-deoxy-D-glucopyranose monopalmitate | 162.5 mg/kg | 14.8 days | 45.1% | 15.5 days | 52.0% | 16.3 days | 59.8% | 17.5 days | 71.6% | – |
| O=NN(CCCl)C(=O)N[C@H]1C(O)O[C@H](CO)[C@@H](O)[C@@H]1O (stereo partly drawn) [Chlorozotocin, 2-[3-(2-Chloroethyl)-3-nitrosoureido]-2-deoxy-D-glucopyranose] | – | 12.3 days | 20.6% | 14.5 days | 42.2% | 16.3 days | 59.8% | 18.8 days | 84.3% | 45 to 47 mg/kg |
